Measured values published in ChEMBL document CHEMBL2169869, “Assay and inhibition of diacylglycerol lipase activity” (Bioorg Med Chem Lett, 2012).
Activity calls are given as the source filed them. No cut-off for these calls is given here.

Legend:
[1] = molecular target: Cannabinoid receptor 2 (Homo sapiens, UniProt P34972); assay: Displacement of [3H]CP55940 from human CB2 receptor expressed in HEK293 cells; type: cell-based
[2] = molecular target: Cannabinoid receptor 2 (Mus musculus, UniProt P47936); assay: Displacement of [3H]CP55940 from CB2 receptor in mouse spleen membrane; type: cell membranes
[3] = molecular target: Cannabinoid receptor 1 (Rattus norvegicus, UniProt P20272); type: cell membranes, Brain
Description: Displacement of [3H]CP55940 from CB1 receptor in rat brain synaptosome membrane

[4] = molecular target: T1, Monoglyceride lipase (Homo sapiens) (UniProt Q99685); assay: Inhibition of human N-terminal histidine tagged full length MAGL expressed in Escherichia coli at 10 uM by coumarin ester substrate fluorescence assay
T1 sequence (whole entry): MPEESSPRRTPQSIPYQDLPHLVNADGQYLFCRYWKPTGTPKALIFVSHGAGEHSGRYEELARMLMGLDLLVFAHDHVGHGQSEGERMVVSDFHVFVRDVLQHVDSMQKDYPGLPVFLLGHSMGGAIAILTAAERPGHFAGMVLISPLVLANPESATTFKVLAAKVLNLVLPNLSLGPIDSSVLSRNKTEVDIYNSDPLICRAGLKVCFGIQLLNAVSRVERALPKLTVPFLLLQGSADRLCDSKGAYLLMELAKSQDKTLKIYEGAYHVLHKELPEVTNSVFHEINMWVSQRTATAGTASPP

[5] = molecular target: T2, Fatty-acid amide hydrolase 1 (Rattus norvegicus) (UniProt P97612); assay: Inhibition of rat histidine tagged FAAH expressed in Escherichia coli at 10 uM by coumarin ester substrate fluorescence assay
T2 sequence (whole entry): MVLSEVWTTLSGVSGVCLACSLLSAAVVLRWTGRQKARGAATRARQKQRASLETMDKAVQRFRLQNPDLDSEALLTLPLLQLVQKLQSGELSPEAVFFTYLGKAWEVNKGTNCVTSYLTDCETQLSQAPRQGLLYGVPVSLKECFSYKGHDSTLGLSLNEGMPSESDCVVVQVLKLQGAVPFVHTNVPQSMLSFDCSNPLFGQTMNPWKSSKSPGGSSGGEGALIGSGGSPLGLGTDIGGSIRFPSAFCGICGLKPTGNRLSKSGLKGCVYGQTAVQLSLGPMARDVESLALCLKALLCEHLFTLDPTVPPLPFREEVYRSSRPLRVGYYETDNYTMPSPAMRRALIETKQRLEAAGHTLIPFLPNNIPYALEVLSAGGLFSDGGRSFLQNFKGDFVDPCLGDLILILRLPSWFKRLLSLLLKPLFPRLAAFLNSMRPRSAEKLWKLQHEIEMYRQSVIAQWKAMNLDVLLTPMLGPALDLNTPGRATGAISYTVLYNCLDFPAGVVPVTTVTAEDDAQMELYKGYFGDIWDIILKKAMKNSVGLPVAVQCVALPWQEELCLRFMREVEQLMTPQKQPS

[6] = organism: Sus scrofa; assay: Inhibition of porcine pancreatic lipase type 2 at 10 uM by FRET assay
[7] = tested on: Bacteria; assay: Inhibition of bacterial lipoprotein lipase at 10 uM by FRET assay
[8] = molecular target: T3, Diacylglycerol lipase-alpha (Homo sapiens) (UniProt Q9Y4D2); assay: Inhibition of human DAGLalpha expressed in HEK293T cell membrane using [14C]SAG substrate at 10 uM in detergent free solution by […]; type: cell-based; conditions: HEK-293T
T3 sequence (whole entry): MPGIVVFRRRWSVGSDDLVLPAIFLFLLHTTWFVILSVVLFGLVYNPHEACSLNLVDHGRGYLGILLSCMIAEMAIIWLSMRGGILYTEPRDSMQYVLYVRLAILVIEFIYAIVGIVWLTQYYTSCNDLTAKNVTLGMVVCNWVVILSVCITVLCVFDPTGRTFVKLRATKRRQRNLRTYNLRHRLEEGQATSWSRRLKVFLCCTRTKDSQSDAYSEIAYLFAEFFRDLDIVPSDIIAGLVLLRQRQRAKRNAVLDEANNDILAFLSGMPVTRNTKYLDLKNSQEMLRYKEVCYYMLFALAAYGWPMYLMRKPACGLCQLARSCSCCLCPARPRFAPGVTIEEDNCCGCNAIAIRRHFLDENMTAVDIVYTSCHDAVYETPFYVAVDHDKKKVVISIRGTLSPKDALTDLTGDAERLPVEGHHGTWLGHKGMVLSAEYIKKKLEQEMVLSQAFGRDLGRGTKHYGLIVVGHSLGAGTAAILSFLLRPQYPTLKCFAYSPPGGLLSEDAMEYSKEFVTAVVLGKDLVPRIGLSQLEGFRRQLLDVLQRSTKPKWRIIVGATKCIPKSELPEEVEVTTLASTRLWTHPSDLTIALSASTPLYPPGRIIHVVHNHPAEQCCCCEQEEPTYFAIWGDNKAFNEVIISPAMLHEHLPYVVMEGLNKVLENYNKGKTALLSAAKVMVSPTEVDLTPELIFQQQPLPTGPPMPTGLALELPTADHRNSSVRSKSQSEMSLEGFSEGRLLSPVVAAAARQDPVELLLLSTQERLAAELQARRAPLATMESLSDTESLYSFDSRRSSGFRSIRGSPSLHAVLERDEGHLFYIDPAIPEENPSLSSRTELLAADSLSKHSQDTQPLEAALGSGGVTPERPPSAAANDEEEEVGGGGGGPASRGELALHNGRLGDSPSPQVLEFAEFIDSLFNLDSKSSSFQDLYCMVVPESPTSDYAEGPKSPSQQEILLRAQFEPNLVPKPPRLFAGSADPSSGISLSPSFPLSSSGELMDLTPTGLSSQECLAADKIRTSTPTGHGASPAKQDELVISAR

[9] = molecular target: T4, Diacylglycerol lipase-alpha (Mus musculus) (UniProt Q6WQJ1); assay: Inhibition of mouse DAGLalpha expressed in HEK293T cell membrane using [14C]SAG substrate at 10000 nM by scintillation counting based radio-TLC assay; type: cell membranes; conditions: HEK-293T
T4 sequence (whole entry): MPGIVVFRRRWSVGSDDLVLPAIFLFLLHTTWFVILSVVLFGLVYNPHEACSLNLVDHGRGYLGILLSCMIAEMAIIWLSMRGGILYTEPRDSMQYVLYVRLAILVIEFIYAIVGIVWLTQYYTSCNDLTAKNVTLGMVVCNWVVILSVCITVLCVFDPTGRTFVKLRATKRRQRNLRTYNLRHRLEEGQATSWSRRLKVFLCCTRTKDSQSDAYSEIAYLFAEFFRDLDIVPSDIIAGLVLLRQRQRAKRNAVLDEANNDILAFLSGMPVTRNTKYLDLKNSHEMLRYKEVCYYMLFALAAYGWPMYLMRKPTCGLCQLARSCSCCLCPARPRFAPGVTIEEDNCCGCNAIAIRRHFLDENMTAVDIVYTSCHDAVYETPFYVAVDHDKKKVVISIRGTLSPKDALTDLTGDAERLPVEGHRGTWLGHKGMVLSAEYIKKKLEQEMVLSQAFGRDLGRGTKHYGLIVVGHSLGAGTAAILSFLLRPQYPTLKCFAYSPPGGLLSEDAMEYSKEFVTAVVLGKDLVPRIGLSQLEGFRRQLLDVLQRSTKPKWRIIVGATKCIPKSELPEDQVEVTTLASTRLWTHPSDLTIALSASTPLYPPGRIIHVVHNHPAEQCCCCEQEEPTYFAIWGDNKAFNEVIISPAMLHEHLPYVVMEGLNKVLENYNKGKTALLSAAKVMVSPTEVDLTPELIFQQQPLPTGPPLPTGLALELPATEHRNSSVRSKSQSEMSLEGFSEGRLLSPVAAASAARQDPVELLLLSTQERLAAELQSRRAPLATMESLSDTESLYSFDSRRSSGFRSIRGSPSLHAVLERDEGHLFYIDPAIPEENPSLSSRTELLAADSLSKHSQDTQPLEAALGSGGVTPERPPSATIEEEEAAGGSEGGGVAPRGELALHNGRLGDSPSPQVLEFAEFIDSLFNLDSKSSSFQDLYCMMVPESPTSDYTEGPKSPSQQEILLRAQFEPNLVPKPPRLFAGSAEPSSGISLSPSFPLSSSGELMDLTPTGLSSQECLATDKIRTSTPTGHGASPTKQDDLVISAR

[10] = molecular target: T4, Diacylglycerol lipase-alpha (Mus musculus); assay: Inhibition of mouse DAGLalpha expressed in HEK293T cell membrane using [14C]SAG substrate at 10 nM by scintillation counting based radio-TLC assay; type: cell membranes; conditions: HEK-293T
[11] = molecular target: T3, Diacylglycerol lipase-alpha (Homo sapiens); assay: Inhibition of human DAGLalpha expressed in HEK293T cell membrane using [14C]SAG substrate at 10 uM in detergent free solution by scintillation counting based radio-TLC assay; conditions: HEK-293T
[12] = molecular target: T3, Diacylglycerol lipase-alpha (Homo sapiens); assay: Inhibition of human DAGLalpha expressed in HEK293T cell membrane using [14C]SAG substrate at 10 uM using JZL184 pretreated protein in detergent free solution by […]; type: cell-based; conditions: HEK-293T

Sequence of Cannabinoid receptor 1 (P20272 whole entry): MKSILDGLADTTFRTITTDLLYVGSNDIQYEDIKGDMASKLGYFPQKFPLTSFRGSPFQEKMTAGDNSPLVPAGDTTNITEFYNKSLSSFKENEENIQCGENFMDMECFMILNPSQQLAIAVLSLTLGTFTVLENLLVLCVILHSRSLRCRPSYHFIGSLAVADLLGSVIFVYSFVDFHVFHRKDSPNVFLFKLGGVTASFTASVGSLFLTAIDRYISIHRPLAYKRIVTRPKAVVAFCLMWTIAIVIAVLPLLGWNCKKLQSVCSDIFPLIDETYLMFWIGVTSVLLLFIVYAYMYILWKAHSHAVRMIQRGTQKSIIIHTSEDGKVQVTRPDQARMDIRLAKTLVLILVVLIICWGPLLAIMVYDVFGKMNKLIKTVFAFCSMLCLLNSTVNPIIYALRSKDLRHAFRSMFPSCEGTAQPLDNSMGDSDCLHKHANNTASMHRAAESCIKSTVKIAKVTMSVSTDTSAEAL
Sequence of Cannabinoid receptor 2 (Mus musculus, UniProt P47936) (P47936 whole entry): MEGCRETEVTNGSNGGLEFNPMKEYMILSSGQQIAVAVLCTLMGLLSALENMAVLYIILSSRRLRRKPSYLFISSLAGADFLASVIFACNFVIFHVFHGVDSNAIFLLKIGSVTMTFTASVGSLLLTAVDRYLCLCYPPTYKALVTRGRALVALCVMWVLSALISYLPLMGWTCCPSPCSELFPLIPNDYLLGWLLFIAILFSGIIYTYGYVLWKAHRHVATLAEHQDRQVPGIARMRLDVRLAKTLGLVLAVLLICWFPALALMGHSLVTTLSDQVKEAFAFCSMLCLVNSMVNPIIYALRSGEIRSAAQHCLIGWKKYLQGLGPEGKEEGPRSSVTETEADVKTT
Sequence of Cannabinoid receptor 2 (Homo sapiens, UniProt P34972) (P34972 whole entry): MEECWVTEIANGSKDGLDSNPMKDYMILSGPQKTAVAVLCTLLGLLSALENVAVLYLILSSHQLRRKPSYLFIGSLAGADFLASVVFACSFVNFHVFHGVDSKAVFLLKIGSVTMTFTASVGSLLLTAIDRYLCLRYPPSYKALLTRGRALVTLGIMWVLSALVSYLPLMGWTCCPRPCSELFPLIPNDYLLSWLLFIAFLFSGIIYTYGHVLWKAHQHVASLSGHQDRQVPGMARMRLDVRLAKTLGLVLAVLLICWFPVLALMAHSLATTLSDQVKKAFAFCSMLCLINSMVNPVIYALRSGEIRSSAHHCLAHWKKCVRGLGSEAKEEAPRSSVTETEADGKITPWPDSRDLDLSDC

Structure (SMILES) | Ki [1] [µM] | Ki [2] [µM] | Ki [3] [µM] | inhibition [4] | inhibition [5] | inhibition [6] [%] | inhibition [7] [%] | inhibition [8] [%] | inhibition [9] [%] | inhibition [10] | inhibition [11] | inhibition [12] [%]
CCCCCCCCNC(=O)OCC(OC)O[Si](c1ccccc1)(c1ccccc1)C(C)(C)C (racemic) | > 1 | > 1 | > 1 | inactive | inactive | – | – | – | – | – | – | –
COCC(COC(=O)CCCc1ccc(-c2ccccc2)cc1)OC(=O)CCCc1ccc(-c2ccccc2)cc1 (racemic) | > 1 | > 1 | > 1 | inactive | inactive | – | – | – | – | – | – | –
COCC(CNC(=O)CCCc1ccc(-c2ccccc2)cc1)OC(=O)CCCc1ccc(-c2ccccc2)cc1 (racemic) | > 1 | > 1 | > 1 | inactive | inactive | – | – | – | – | – | – | –
CCCCCCCC/C=C\CCCCCCCC(=O)OC(CNC(=O)CCCCCCC)COC (racemic) | > 1 | > 1 | > 1 | inactive | inactive | – | – | – | – | – | – | –
CCCCCCCC/C=C\CCCCCCCC(=O)OC(CNC(=O)ON=C1CCCCC1)COC (racemic) | > 1 | > 1 | > 1 | inactive | inactive | – | – | – | – | – | – | –
NC(=O)c1cccc(-c2cccc(OC(=O)NC3CCCCC3)c2)c1 | – | – | – | 18% | – | 68 | 21 | 22 | < 0 | inactive | inactive | 7
CCCCCCCC(=O)OC(CNC(=O)ON=C1CCCCC1)COC (racemic) | > 1 | > 1 | > 1 | inactive | inactive | – | – | – | – | – | – | –
CCCCCCCCNC(=O)OCC(COC)OC(=O)NCCCCCCCC (racemic) | > 1 | > 1 | > 1 | inactive | inactive | – | – | – | – | – | – | –
O=C(Oc1ccc([N+](=O)[O-])cc1)N1CCN(Cc2cccc(Oc3ccccc3)c2)CC1 | – | – | – | – | – | 43 | < 0 | 84 | 10 | inactive | inactive | 55
CCCCC/C=C\C/C=C\C/C=C\C/C=C\CCCC(=O)OC(COC)COC(=O)NCCCCCCCC (racemic) | > 1 | > 1 | > 1 | inactive | inactive | – | – | – | – | – | – | –
CCCCCCCC(=O)NCC(COC)OC(=O)CCCCCCC (racemic) | > 1 | > 1 | > 1 | inactive | inactive | – | – | – | – | – | – | –
CCCCCCCCCCCCCCCCS(=O)(=O)F | – | – | – | – | 100% | – | – | – | – | – | – | –
COCC(CNC(=O)ON=C1CCCCC1)OC(=O)CCCc1ccc(-c2ccccc2)cc1 (racemic) | > 1 | > 1 | > 1 | inactive | inactive | – | – | – | – | – | – | –
CCCCCCCCNC(=O)OCC(COC)OC(=O)CCCCCCC (racemic) | > 1 | > 1 | > 1 | inactive | inactive | – | – | – | – | – | – | –
CCCCCCCCOC(=O)NCC(COC)OC(=O)CCCCCCC (racemic) | > 1 | > 1 | > 1 | inactive | inactive | – | – | – | – | – | – | –
COCC(O)CNC(=O)ON=C1CCCCC1 (racemic) | > 1 | > 1 | – | inactive | inactive | – | – | – | – | – | – | –
CCCCCCCC/C=C\CCCCCCCC(=O)OC(COC)COC(=O)NCCCCCCCC (racemic) | > 1 | > 1 | > 1 | inactive | inactive | – | – | – | – | – | – | –
CCCCCCCC/C=C\CCCCCCCC(=O)OC(CNC(=O)OCCCCCCCC)COC (racemic) | > 1 | > 1 | > 1 | inactive | inactive | – | – | – | – | – | – | –
CCCCCCCC(=O)OCC(COC)OC(=O)CCCCCCC (racemic) | > 1 | > 1 | > 1 | inactive | inactive | – | – | – | – | – | – | –
